Results from ChEMBL document CHEMBL1136757 (J Med Chem, 2003).
Several values for one entry are separate records, joined by “and”; a condition that tells them apart may be missing. Identical values can stand only once. Blank lines part the entries; values can stand above or below the compound they belong to.

What was measured:
Glutathione reductase [1] = molecular target: T1, Glutathione reductase (Saccharomyces cerevisiae S288c, UniProt P41921); assay: In vitro inhibitory activity against glutathione reductase (GR) from bakers yeast; Not active
T1 sequence (P41921 whole entry): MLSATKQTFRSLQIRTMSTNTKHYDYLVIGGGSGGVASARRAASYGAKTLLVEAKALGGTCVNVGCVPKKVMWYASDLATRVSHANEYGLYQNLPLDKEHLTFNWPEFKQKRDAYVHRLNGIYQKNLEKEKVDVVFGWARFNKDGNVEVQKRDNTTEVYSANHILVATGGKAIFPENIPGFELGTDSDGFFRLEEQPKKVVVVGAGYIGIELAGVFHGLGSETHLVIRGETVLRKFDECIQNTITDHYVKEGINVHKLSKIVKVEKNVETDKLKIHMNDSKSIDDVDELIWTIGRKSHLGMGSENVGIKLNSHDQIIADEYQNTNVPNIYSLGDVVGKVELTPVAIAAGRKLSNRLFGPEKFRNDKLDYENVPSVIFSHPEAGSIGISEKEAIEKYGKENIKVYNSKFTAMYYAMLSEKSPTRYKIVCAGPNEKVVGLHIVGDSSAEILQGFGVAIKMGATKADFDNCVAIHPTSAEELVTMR

[2] = In vitro inhibitory activity against sorbitol dehydrogenase (SD) from sheep liver; Not active
[3] = molecular target: T2, Aldo-keto reductase family 1 member A1 (Rattus norvegicus, UniProt P51635); assay: In vitro inhibitory activity against aldehyde reductase 1 (ALR1) from rat kidney.
T2 sequence (P51635 whole entry): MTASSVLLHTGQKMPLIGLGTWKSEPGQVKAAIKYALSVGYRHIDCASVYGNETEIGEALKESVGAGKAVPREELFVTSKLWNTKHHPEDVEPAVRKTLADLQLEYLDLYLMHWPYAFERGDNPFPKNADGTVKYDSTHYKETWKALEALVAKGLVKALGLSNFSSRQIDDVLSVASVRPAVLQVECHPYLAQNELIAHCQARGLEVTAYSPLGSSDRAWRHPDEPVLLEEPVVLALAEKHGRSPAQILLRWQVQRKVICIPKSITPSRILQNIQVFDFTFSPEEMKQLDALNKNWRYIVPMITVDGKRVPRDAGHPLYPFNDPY

[4] = molecular target: Aldo-keto reductase family 1 member B1 (Rattus norvegicus, UniProt P07943); assay: In vitro inhibitory activity against aldose reductase (ALR2) from rat lens extraction.
Rattus norvegicus [5] = species on record: Rattus norvegicus; assay: Ability to prevent cataract development in severly galactosemic rat treated with 3 percent ophthalmic solution on day 11; format: functional
Rattus norvegicus [6] = species on record: Rattus norvegicus; assay: Ability to prevent cataract development in severly galactosemic rat treated with 3 percent ophthalmic solution on day 19; format: functional
Rattus norvegicus [7] = species on record: Rattus norvegicus; assay: Ability to prevent cataract development in severly galactosemic rat treated with 3 percent ophthalmic solution on day 18; format: functional
Rattus norvegicus [8] = species on record: Rattus norvegicus; assay: Ability to prevent cataract development in severly galactosemic rat treated with 3 percent ophthalmic solution on day 20; format: functional
Rattus norvegicus [9] = species on record: Rattus norvegicus; assay: Ability to prevent cataract development in severly galactosemic rat treated with 3 percent ophthalmic solution on day 12; format: functional
Rattus norvegicus [10] = species on record: Rattus norvegicus; assay: Ability to prevent cataract development in severly galactosemic rat treated with 3 percent ophthalmic solution on day 16; format: functional
Rattus norvegicus [11] = species on record: Rattus norvegicus; assay: Ability to prevent cataract development in severly galactosemic rat treated with 3 percent ophthalmic solution on day 21; format: functional
Rattus norvegicus [12] = species on record: Rattus norvegicus; assay: Ability to prevent cataract development in severly galactosemic rat treated with 3 percent ophthalmic solution on day 15; format: functional
Rattus norvegicus [13] = species on record: Rattus norvegicus; assay: Ability to prevent cataract development in severly galactosemic rat treated with 3 percent ophthalmic solution on day 17; format: functional
Rattus norvegicus [14] = species on record: Rattus norvegicus; assay: Ability to prevent cataract development in severly galactosemic rat treated with 3 percent ophthalmic solution on day 14; format: functional
Rattus norvegicus [15] = species on record: Rattus norvegicus; assay: Ability to prevent cataract development in severly galactosemic rat treated with 3 percent ophthalmic solution on day 13; format: functional
Glutathione reductase [16] = molecular target: T1, Glutathione reductase; assay: In vitro inhibitory activity against glutathione reductase (GR) from bakers yeast
Rattus norvegicus [17] = species on record: Rattus norvegicus; assay: Ability to prevent cataract development in severly galactosemic rat treated with 1 percent ophthalmic solution on day 17; format: functional
Rattus norvegicus [18] = species on record: Rattus norvegicus; assay: Ability to prevent cataract development in severly galactosemic rat treated with 1 percent ophthalmic solution on day 18; format: functional
Rattus norvegicus [19] = species on record: Rattus norvegicus; assay: Ability to prevent cataract development in severly galactosemic rat treated with 1 percent ophthalmic solution on day 11; format: functional
Rattus norvegicus [20] = species on record: Rattus norvegicus; assay: Ability to prevent cataract development in severly galactosemic rat treated with 1 percent ophthalmic solution on day 21; format: functional
Rattus norvegicus [21] = species on record: Rattus norvegicus; assay: Ability to prevent cataract development in severly galactosemic rat treated with 1 percent ophthalmic solution on day 16; format: functional
Rattus norvegicus [22] = species on record: Rattus norvegicus; assay: Ability to prevent cataract development in severly galactosemic rat treated with 1 percent ophthalmic solution on day 14; format: functional
Rattus norvegicus [23] = species on record: Rattus norvegicus; assay: Ability to prevent cataract development in severly galactosemic rat treated with 1 percent ophthalmic solution on day 19; format: functional
Rattus norvegicus [24] = species on record: Rattus norvegicus; assay: Ability to prevent cataract development in severly galactosemic rat treated with 1 percent ophthalmic solution on day 20; format: functional
Rattus norvegicus [25] = species on record: Rattus norvegicus; assay: Ability to prevent cataract development in severly galactosemic rat treated with 1 percent ophthalmic solution on day 15; format: functional
Rattus norvegicus [26] = species on record: Rattus norvegicus; assay: Ability to prevent cataract development in severly galactosemic rat treated with 1 percent ophthalmic solution on day 13; format: functional
Rattus norvegicus [27] = species on record: Rattus norvegicus; assay: Ability to prevent cataract development in severly galactosemic rat treated with 1 percent ophthalmic solution on day 12; format: functional

Structure (SMILES): N#CC(C(=O)O)C1C(=O)Nc2ccc(F)cc21 (centres undefined)
- IC50 (Glutathione reductase [1]): Not Active
- IC50 [2]: Not Active
- IC50 [3]: 6790 nM
- IC50 [4]: 280 nM

Structure (SMILES): CCCN1C(=O)C(C(C#N)C(=O)O)c2cc(F)ccc21 (centres undefined)
- IC50 [4]: 280 nM

Structure (SMILES): N#CC(C(=O)O)C1C(=O)N(CCCl)c2ccc(F)cc21 (centres undefined)
- IC50 [4]: 1340 nM

Structure (SMILES): N#CC(C(=O)O)C1C(=O)N(Cc2ccccc2)c2ccc(F)cc21 (centres undefined)
- IC50 [4]: 180 nM

Structure (SMILES): Cc1ccc(CN2C(=O)C(C(C#N)C(=O)O)c3cc(Br)ccc32)cc1 (centres undefined)
- IC50 [4]: 250 nM

Structure (SMILES): Cc1ccc(CN2C(=O)C(C(C#N)C(=O)O)c3cc(F)ccc32)cc1 (centres undefined)
- Nuclear cataract (Rattus norvegicus [5]): 0%
- Nuclear cataract (Rattus norvegicus [6]): 84%
- Nuclear cataract (Rattus norvegicus [7]): 72%
- Nuclear cataract (Rattus norvegicus [8]): 96%
- Nuclear cataract (Rattus norvegicus [9]): 0%
- Nuclear cataract (Rattus norvegicus [10]): 57%
- IC50 (Glutathione reductase [1]): Not Active
- Nuclear cataract (Rattus norvegicus [11]): 100%
- Nuclear cataract (Rattus norvegicus [12]): 43%
- Nuclear cataract (Rattus norvegicus [13]): 57%
- IC50 [3]: 690 nM
- IC50 [4]: 75 nM and 42 nM
- Nuclear cataract (Rattus norvegicus [14]): 18%
- Nuclear cataract (Rattus norvegicus [15]): 0%

Structure (SMILES): Cc1ccc(CN2C(=O)C(C(C#N)C(=O)OC(C)C)c3cc(F)ccc32)cc1 (centres undefined)
- Nuclear cataract (Rattus norvegicus [5]): 0%
- Nuclear cataract (Rattus norvegicus [6]): 8%
- Nuclear cataract (Rattus norvegicus [7]): 0%
- Nuclear cataract (Rattus norvegicus [8]): 8%
- Nuclear cataract (Rattus norvegicus [9]): 0%
- Nuclear cataract (Rattus norvegicus [10]): 0%
- Nuclear cataract (Rattus norvegicus [11]): 8%
- Nuclear cataract (Rattus norvegicus [12]): 0%
- Nuclear cataract (Rattus norvegicus [13]): 0%
- Nuclear cataract (Rattus norvegicus [14]): 0%
- Nuclear cataract (Rattus norvegicus [15]): 0%

Structure (SMILES): N#CC(C(=O)O)C1C(=O)N(Cc2ccccc2)c2ccccc21 (centres undefined)
- IC50 [4]: 3200 nM

Structure (SMILES): N#CC(C(=O)O)C1C(=O)N(Cc2ccc(C(F)(F)F)cc2)c2ccccc21 (centres undefined)
- IC50 [4]: 570 nM

Structure (SMILES): N#CC(C(=O)O)C1C(=O)N(Cc2ccc(F)cc2)c2ccccc21 (centres undefined)
- IC50 [4]: 570 nM

Structure (SMILES): N#CC(C(=O)O)C1C(=O)N(Cc2ccc(C(F)(F)F)cc2)c2ccc(F)cc21 (centres undefined)
- IC50 [4]: 280 nM

Structure (SMILES): O=c1c(O)c(-c2ccc(O)c(O)c2)oc2cc(O)cc(O)c12 [QUERCETIN]
- IC50 (Glutathione reductase [16]): 48800 nM

Further lines, with some results ahead:

- IC50 (Glutathione reductase [1]): Not Active
- IC50 [2]: Not Active
- IC50 [3]: 3570 nM
- IC50 [4]: 640 nM and 460 nM
Structure (SMILES): Cc1ccc(CN2C(=O)C(C(C#N)C(=O)O)c3ccccc32)cc1 (centres undefined)

- IC50 [4]: 110 nM
Structure (SMILES): COc1ccc(CN2C(=O)C(C(C#N)C(=O)O)c3cc(F)ccc32)cc1 (centres undefined)

- IC50 [4]: 630 nM
Structure (SMILES): COc1ccc(CN2C(=O)C(C(C#N)C(=O)O)c3ccccc32)cc1 (centres undefined)

- IC50 [4]: 380 nM
Structure (SMILES): N#CC(C(=O)O)C1C(=O)Nc2ccc(Br)cc21 (centres undefined)

- IC50 [4]: 1200 nM
Structure (SMILES): N#CC(C(=O)O)C1C(=O)Nc2ccc([N+](=O)[O-])cc21 (centres undefined)

- IC50 [4]: 850 nM
Structure (SMILES): N#CC(C(=O)O)C1C(=O)Nc2ccccc21 (centres undefined)

- IC50 (Glutathione reductase [1]): Not Active
- IC50 [2]: Not Active
- IC50 [3]: 490 nM
- IC50 [4]: 130 nM and 58 nM
Structure (SMILES): N#CC(C(=O)O)C1C(=O)N(Cc2ccc(F)cc2)c2ccc(F)cc21 (centres undefined)

- IC50 [4]: 5400 nM
Structure (SMILES): COc1ccc2c(c1)C(C(C#N)C(=O)O)C(=O)N2 (centres undefined)

- IC50 [4]: 390 nM
Structure (SMILES): CN1C(=O)C(C(C#N)C(=O)O)c2cc(F)ccc21 (centres undefined)

- IC50 (Glutathione reductase [1]): Not Active
Structure (SMILES): O=C1NC(=O)[C@@]2(CCOc3ccc(F)cc32)N1 [SORBINIL]

- IC50 (Glutathione reductase [1]): Not Active
- IC50 [3]: Not Active
- IC50 [4]: 46 nM
Structure (SMILES): COc1ccc2c(C(=S)N(C)CC(=O)O)cccc2c1C(F)(F)F [TOLRESTAT]
- Nuclear cataract (Rattus norvegicus [5]): 0%
- Nuclear cataract (Rattus norvegicus [17]): 32%
- Nuclear cataract (Rattus norvegicus [6]): 0%
- Nuclear cataract (Rattus norvegicus [18]): 43%
- Nuclear cataract (Rattus norvegicus [7]): 0%
- Nuclear cataract (Rattus norvegicus [8]): 0%
- Nuclear cataract (Rattus norvegicus [9]): 0%
- Nuclear cataract (Rattus norvegicus [19]): 0%
- Nuclear cataract (Rattus norvegicus [10]): 0%
- Nuclear cataract (Rattus norvegicus [20]): 47%
- Nuclear cataract (Rattus norvegicus [11]): 0%
- Nuclear cataract (Rattus norvegicus [12]): 0%
- Nuclear cataract (Rattus norvegicus [21]): 32%
- Nuclear cataract (Rattus norvegicus [22]): 23%
- Nuclear cataract (Rattus norvegicus [13]): 0%
- Nuclear cataract (Rattus norvegicus [23]): 43%
- Nuclear cataract (Rattus norvegicus [24]): 47%
- Nuclear cataract (Rattus norvegicus [25]): 32%
- Nuclear cataract (Rattus norvegicus [14]): 0%
- Nuclear cataract (Rattus norvegicus [15]): 0%
- Nuclear cataract (Rattus norvegicus [26]): 0%
- Nuclear cataract (Rattus norvegicus [27]): 0%
